Experimental data reported in patent publication US8088951B2, “Epigenetic mechanisms re-establish access to long-term memory after neuronal loss” (Massachusetts Institute of Technology, priority 2006, dated 2012).
Entries after “also recorded” stand apart in the source; their conditions may differ.

Columns and labels:
Format in all cases: in vivo
[1] = test system: C57BL/6J mice; test: Water maze paradigm (spatial learning) in wild type mice; settings: daily ip for 4 weeks; vs vehicle group; P<0.0001
Text: Learning tests: All behavioral testing is described in Fischer et al. (3).
Mechanism underlying EE. Other than a few genes involved in synaptic function, relatively little is known about the mechanism underlying EE (12-14). Since histone acetylation, an epigenetic mechanism regulating gene expression via chromatin remodeling, has recently been implicated in synaptic plasticity and learning behavior (15-18), the induction of a transcriptional program by EE that leads to activation of plasticity genes was evaluated. Wild type mice were subjected to EE and hippocampal and cortical brain lysates were obtained 3, 24 h or 2 weeks later (n=3/group) by acid extraction and probed with antibodies detecting histone-tail modification that indicate active chromatin. Increases in hippocampal H3 (K-9, K14) and H4 (K-5) and in cortical H3 (K-9) and H4 (K-5) acetylation were observed. […] No changes in H4 acetylation were observed when the Ac-H4 (K,8,12,16) antibody was used, which is likely due to the fact that H4-K16 is a marker of condensed chromatin. EE induced hippocampal and cortical histone 3 (H3) and histone 4 (H4) acetylation and methylation as soon as 3 hours after treatment (FIGS. 3a, b). […]
The over expression of HDAC2 impairs spatial learning. […] The swimming path of the mice was recorded by a video camera and analyzed by the Videomot 2 software (TSE). […]

[2] = test system: H3 and H4 acetylation; test: Histone acetylation in hippocampal lysates of wild type mice (immunoblot); settings: daily ip for 4 weeks
Method: Immunoblotting and staining: Lysates for immunoblotting were prepared as described by Fischer et al. (3). To isolate histones, brain tissue was homogenized in TX-buffer (50 mM Tris HCL, 150 mM NACL, 2 mM EDTA, 1% Triton-100) and incubated at 4° C. for 15 min prior to centrifugation at 200 rpm for 10 min. After a wash-step in TX-buffer the pellet was dissolved in TX-buffer containing 0.2M HCl and incubated on ice for 30 min, before a second centrifugation at 10000 rpm for 10 min. The supernatant was either dialysed or directly used for immunoblotting. Antibodies were used in 1:1000 concentrations. All antibodies detecting histones and anti-PSD-95 were form Upstate (Lake Placid, N.Y.). Anti-synaptophysin (SVP38) was from Sigma. Anti-neuronal nuclei (neuN) and anti-growth associated protein (Gap43) were from Chemicon (Temecula, Calif.) and anti-N-cadherin, anti-β-catenin were from Santa Cruz (Santa Cruz, Calif.). Immunostaining was performed as described by Fischer et al. (3). Antibodies mentioned above were used in a 1:500 dilution. […]
Mechanism underlying EE. […] Since histone acetylation, an epigenetic mechanism regulating gene expression via chromatin remodeling, has recently been implicated in synaptic plasticity and learning behavior (15-18), the induction of a transcriptional program by EE that leads to activation of plasticity genes was evaluated. […]

[3] = test system: MAP-2, synaptophysin (SVP), synaptic and dendritic marker proteins; test: Synaptic and dendritic markers in hippocampus of wild type mice (immunostaining, immunoblot); settings: wild type mice injected for 4 weeks
Method: (§1) Immunoblotting and staining: Lysates for immunoblotting were prepared as described by Fischer et al. (3). To isolate histones, brain tissue was homogenized in TX-buffer (50 mM Tris HCL, 150 mM NACL, 2 mM EDTA, 1% Triton-100) and incubated at 4° C. for 15 min prior to centrifugation at 200 rpm for 10 min. After a wash-step in TX-buffer the pellet was dissolved in TX-buffer containing 0.2M HCl and incubated on ice for 30 min, before a second centrifugation at 10000 rpm for 10 min. The supernatant was either dialysed or directly used for immunoblotting. Antibodies were used in 1:1000 concentrations. All antibodies detecting histones and anti-PSD-95 were form Upstate (Lake Placid, N.Y.). Anti-synaptophysin (SVP38) was from Sigma. Anti-neuronal nuclei (neuN) and anti-growth associated protein (Gap43) were from Chemicon (Temecula, Calif.) and anti-N-cadherin, anti-β-catenin were from Santa Cruz (Santa Cruz, Calif.). Immunostaining was performed as described by Fischer et al. (3). Antibodies mentioned above were used in a 1:500 dilution. Anti-MAP-2 antibody (Sigma) was used in a 1:200 dilution.
(§2) LSMeta10 software (Zeiss; Jena, Germany) was used to calculate the mean SVP intensity. Brain sections with the strongest intensity were scanned first. All other images included in the analysis where scanned using the same microscope setting. […] Scale bar: 20 μm. py, pyramidal cell layer (FIG. 1g).
The effect of sodiumbutyrate injection on learning, basal anxiety, explorative behavior and brain plasticity. C57BL/6J mice were subjected to fear conditioning and injected intraperitoneally [ip] with 1.2 g/kg sodiumbutyrate (SB, n=8) or saline (vehicle; n=8) immediately afterwards. […] C57BL/6J mice were implanted with microcannulae into the lateral brain ventricles (icv) and injected with either 100 ng SB, 50 ng TSA or vehicle immediately after fear conditioning (n=8/group). […] Immunoblots were quantified relative to the optical density of the vehicle-group (set to 1). […]

[4] = test system: MAP-2, synaptophysin (SVP), synaptic marker proteins; test: Synaptic plasticity markers in CK-p25 Tg mice (immunostaining, immunoblot)
Method: as §1, §2
For SB treatment, p25 was induced in 11 month old CK-p25 Tg mice for 6 weeks. Afterwards p25 expression was repressed and one group of CK-p25 Tg mice was subjected to daily sodiumbutyrate (SB) injection (1.2 g/kg) for 4 weeks, whereas the other group received saline injection. […] Representative images showing hippocampal MAP-2 staining are depicted in FIG. 7f. MAP-2 immunoreactivity of CK-p25 Tg mice treated with SB is increased when compared to the vehicle group. Representative images showing NeuN staining of the ACC.

[5] = test system: CK-p25 Tg mice; test: Recovery of long-term fear memories in CK-p25 Tg mice; settings: CK-p25 Tg mice trained, 4 weeks rest, 6 weeks p25, then 1.2 g/kg daily for 4 weeks; P=0.0496
Method: The effect of HDAC inhibition on the recovery of inaccessible long-term memories was evaluated. Eleven month old CK-p25 Tg mice were trained in the fear conditioning paradigm and returned to their home cages for 4 weeks. Subsequently p25 was induced for 6 weeks before the mice were injected with either saline (vehicle, n=12) or SB (1.2 g/kg, n=14) for 4 weeks (daily). […] (FIG. 4f). […] Thus chronic injection of SB led to the recovery of memories in CK-p25 Tg mice that had developed severe neuronal loss.

CCCC(=O)[O-].[Na+] [SB, sodiumbutyrate]
escape latency in water maze paradigm [1]: shorter escape latency
H3- and H4 acetylation in the hippocampus [2]: robust increase
levels of synaptic and dendritic marker proteins (markers for brain plasticity), hippocampal lysates ([3]; immunoblots relative to vehicle): elevated levels; also recorded: Several markers for brain plasticity were increased
hippocampal MAP-2 immunoreactivity (IR) ([3]; vs vehicle): increased MAP-2 immunoreactivity (IR)
hippocampal synaptophysin (SVP) IR ([3]; vs vehicle): increased SVP IR
levels of synaptic marker proteins (markers for synaptic plasticity and integrity) ([4]; CK-p25 Tg mice, daily 1.2 g/kg for 4 weeks, hippocampus and cortex, vs vehicle): increased levels of synaptic marker proteins; also recorded: several markers for synaptic plasticity and integrity were increased
hippocampal MAP-2 immunoreactivity ([4]; CK-p25 Tg mice, daily 1.2 g/kg for 4 weeks, vs vehicle): increased
levels of synaptic marker proteins ([4]; CK-p25 Tg mice, long-term memory experiment, vs vehicle group): elevated levels of synaptic marker proteins
MAP-IR in the ACC ([4]; CK-p25 Tg mice, vs vehicle treated): MAP-IR was increased
hippocampal SVP-IR ([4]; CK-p25 mice, vs vehicle-injected, P<0.0001): increased hippocampal SVP-IR
freezing behavior in long-term memory test [5]: performed significantly better than vehicle injected CK-p25 Tg mice
